Results published in patent US20170342025A1, “ANTIMICROBIAL COMPOUNDS, COMPOSITIONS AND METHODS” (Swansea University, priority 2014, published 2017).
Like-named read-outs stand apart in the source and are kept apart here.

Tests used:
[1] = tested on: Escherichia coli (strain JM109); test: MIC determination against Escherichia coli (Andrews protocol); assay type: cell-based; settings: for MIC: Escherichia coli, read-out: MIC E. coli
Procedure: (§1) Minimum Inhibitory Concentrations (MICs) for the compounds prepared were determined against Escherichia coli (strain JM109) and Staphylococcus aureus (strain 9518) using the protocols described by Andrews (J. Antimicrob. Chemother., 2001, 48, Suppl. S1, 5-16).

[2] = tested on: Staphylococcus aureus (strain 9518); test: MIC determination against Staphylococcus aureus (Andrews protocol); assay type: cell-based; settings: for MIC: Staphylococcus aureus, read-out: MIC S. aureus
Procedure: as §1

[3] = Staphylococcus aureus strain 9518

Compound	MIC ([1]; Escherichia coli strain JM109)	MIC [2, 3]	melting point	also measured
CC(=O)O.N=C(N)N/N=C/c1cccc(OCc2cccc(C(F)(F)F)c2)c1Cl [Compound 51j, (E)-Amino(2-(2-chloro-3-((3-(trifluoromethyl)benzyl)oxy)benzylidene)hydrazinyl) methaniminium acetate]	1 to 10 µg/mL	1 to 10 µg/mL	183 to 187 °C	–
Cl.N=C(N)N/N=C/c1cccc(OCc2cccc(C(F)(F)F)c2Cl)c1Cl [Compound 51e, (E)-Amino(2-(2-chloro-3-((2-chloro-3-(trifluoromethyl)benzyl)oxy)benzylidene) hydrazinyl)methaniminium chloride]	1 to 10 µg/mL	32 to 100 µg/mL	274 to 277 °C	–
Cl.N=C(N)N/N=C/c1cccc(OCc2ccc(Cl)cc2Cl)c1Cl [Compound 51f, (E)-Amino(2-(2-chloro-3-((2,4-dichlorobenzyl)oxy)benzylidene)hydrazinyl) methaniminium chloride]	1 to 10 µg/mL	32 to 100 µg/mL	268 to 270 °C	–
Cl.N=C(N)N/N=C/c1cccc(OCc2cccc(Cl)c2Cl)c1Cl [Compound 51d, (E)-Amino(2-(2-chloro-3-((2,3-dichlorobenzyl)oxy)benzylidene)hydrazinyl) methaniminium chloride]	1 to 10 µg/mL	32 to 100 µg/mL	250 to 253 °C	–
Cl.N=C(N)N/N=C/c1cccc(OCc2ccccc2)c1Cl [Compound 51b, (E)-Amino(2-(3-(benzyloxy)-2-chlorobenzylidene)hydrazinyl)methaniminium chloride]	1 to 10 µg/mL	1 to 10 µg/mL	203 to 205 °C	–
Cl.N=C(N)N/N=C/c1cccc(OCc2ccc(C(F)(F)F)cc2)c1 [Compound 49d, (E)-Amino(2-(3-((4-(trifluoromethyl)benzyl)oxy)benzylidene) hydrazinyl) methaniminium chloride]	–	–	176 to 179 °C	MIC E. coli ([1]; Escherichia coli strain JM109): +++ (MIC 1-10 μg/mL); MIC S. aureus [2, 3]: ++ (MIC 10-32 μg/mL)
CC(=O)O.N=C(N)NN=Cc1cccc(OCc2cccc(C(F)(F)F)c2Cl)c1 [Compound 49b, 1-{[(3-{[2-chloro-3-(trifluoromethyl)phenyl]methoxy}phenyl)methylidene]amino} guanidine acetate]	1 to 10 µg/mL	1 to 10 µg/mL	190 to 192 °C	–
Cl.N=C(N)N/N=C/c1cccc(OCc2cc(Cl)cc(Cl)c2Cl)c1Cl [Compound 51i, (E)-Amino(2-(2-chloro-3-((2,3,5-trichlorobenzyl)oxy)benzylidene)hydrazinyl) methaniminium chloride]	32 to 100 µg/mL	32 to 100 µg/mL	273 to 276 °C	–
Cl.N=C(N)N/N=C/c1cccc(OCc2cccc(C(F)(F)F)c2)c1Cl	–	–	198 to 201 °C	–
Cl.N=C(N)N/N=C/c1cccc(OCc2ccc(Cl)c(Cl)c2)c1Cl [Compound 51h, (E)-Amino(2-(2-chloro-3-((3,4-dichlorobenzyl)oxy)benzylidene)hydrazinyl) methaniminium chloride]	1 to 10 µg/mL	1 to 10 µg/mL	230 to 233 °C	–
N=C(N)NCc1cccc(OCc2ccc(F)cc2)c1.O=C(O)C(F)(F)F [Compound 4k, 1-({3-[(4-fluorophenyl)methoxy]phenyl}methyl)guanidine 2,2,2-trifluoroacetate]	–	–	–	MIC [1]: 10 to 32 µg/mL; MIC [2]: 32 to 100 µg/mL
N=C(N)Nc1ccc(OCc2cccc(Cl)c2)cc1.O=C(O)C(F)(F)F [Compound 23c, 1-{4-[(3-chlorophenyl)methoxy]phenyl}guanidine 2,2,2-trifluoroacetate]	> 100 µg/mL	10 to 32 µg/mL	–	–
COc1ccc(CNC(=N)N)cc1OCc1cccc(Cl)c1.O=C(O)C(F)(F)F [Compound 4m, 1-({3-[(3-chlorophenyl)methoxy]-4-methoxyphenyl}methyl)guanidine 2,2,2-trifluoroacetate]	–	–	–	MIC [1]: > 100 µg/mL; MIC [2]: > 100 µg/mL
N=C(N)Nc1ccc(CNS(=O)(=O)c2ccccc2)cc1.O=C(O)C(F)(F)F [Compound 59b, Amino((4-(phenylsulfonamidomethyl)phenyl)amino)methaniminium 2,2,2-trifluoroacetate]	–	–	–	MIC [1]: 32 to 100 µg/mL; MIC [2]: 32 to 100 µg/mL
Cl.N=C(N)N/N=C/c1nccn1Cc1ccc(Cl)cc1 [Compound 61b, (E)-Amino(2-((1-(4-chlorobenzyl)-1H-imidazol-2-yl)methylene)hydrazinyl) methaniminium chloride]	10 to 32 µg/mL	10 to 32 µg/mL	–	–
Cl.N=C(N)N/N=C/c1cccc(OCc2ccc(Cl)cc2)c1	–	–	191 to 193 °C	–
CC(=O)O.[H]/N=C(\N)NN=Cc1ccc(OC)c(OCc2ccc(Cl)c(Cl)c2)c1 [Compound 49g, (E)-2-(3-((3,4-dichlorobenzyl)oxy)-4-methoxybenzylidene)hydrazine-1-carboximidamide acetate]	1 to 10 µg/mL	10 to 32 µg/mL	–	–
N=C(N)NCc1cccc(OCc2ccccc2)c1.O=C(O)C(F)(F)F [Compound 4a, 1-{[3-(benzyloxy)phenyl]methyl}guanidine 2,2,2-trifluoroacetate]	–	–	–	MIC [1]: > 100 µg/mL; MIC [2]: 1 to 10 µg/mL

Compound	MIC ([1]; Escherichia coli strain JM109)	MIC [2, 3]	melting point	also measured
N=C(N)NCc1cccc(OCc2cccc(Cl)c2)c1.O=C(O)C(F)(F)F [Compound 4c, 1-({3-[(3-chlorophenyl)methoxy]phenyl}methyl)guanidine 2,2,2-trifluoroacetate]	–	–	–	MIC [1]: 10 to 32 µg/mL; MIC [2]: 10 to 32 µg/mL
N=C(N)NCc1ccc(NS(=O)(=O)c2cccc(C(F)(F)F)c2)cc1.O=C(O)C(F)(F)F [Compound 55d]	–	–	–	MIC E. coli ([1]; Escherichia coli strain JM109): + (32-100 μg/mL); MIC S. aureus [2, 3]: + (32-100 μg/mL)
N=C(N)N1CCc2ccc(OCc3cccc(Cl)c3Cl)cc2C1.O=C(O)C(F)(F)F [Compound 33, 7-[(2,3-dichlorophenyl)methoxy]-1,2,3,4-tetrahydroisoquinoline-2-carboximidamide 2,2,2-trifluoroacetate]	1 to 10 µg/mL	1 to 10 µg/mL	–	–
CC(C)(C)OC(=O)NC(=N)N1CCc2ccc(-c3ccc(C(C)(C)C)cc3)cc2C1.O=C(O)C(F)(F)F [Compound 28, tert-butyl N-[7-(4-tert-butylphenyl)-1,2,3,4-tetrahydroisoquinoline-2-carboximidoyl]carbamate 2,2,2-trifluoroacetate]	> 100 µg/mL	32 to 100 µg/mL	–	–
N=C(N)NCc1cccc(OCc2ccc(Cl)cc2Cl)c1.O=C(O)C(F)(F)F [Compound 4d, 1-({3-[(2,4-dichlorophenyl)methoxy]phenyl}methyl)guanidine 2,2,2-trifluoroacetate]	–	–	–	MIC [1]: 1 to 10 µg/mL; MIC [2]: > 100 µg/mL
Cl.N=C(N)N/N=C/c1cccn1Cc1cccc(C(F)(F)F)c1 [Compound 61g, (E)-Amino(2-((1-(3-(trifluoromethyl)benzyl)-1H-pyrrol-2-yl)methylene) hydrazinyl)methaniminium chloride]	10 to 32 µg/mL	10 to 32 µg/mL	–	–
N=C(N)NCc1ccc(OCc2cccc(Cl)c2)cc1.O=C(O)C(F)(F)F [Compound 19c, 1-(4-((3-chlorobenzyl)oxy)benzyl)guanidine 2,2,2-trifluoroacetate]	> 100 µg/mL	10 to 32 µg/mL	–	–
Cl.N=C(N)N/N=C/c1nccn1Cc1ccc(C(F)(F)F)cc1 [Compound 61d, (E)-Amino(2-((1-(4-(trifluoromethyl)benzyl)-1H-imidazol-2-yl)methylene) hydrazinyl)methaniminium chloride]	1 to 10 µg/mL	10 to 32 µg/mL	–	–
N=C(N)NCc1ccc(OCc2ccc(Cl)c(Cl)c2)cc1.O=C(O)C(F)(F)F [Compound 19d, 1-(4-((3,4-dichlorobenzyl)oxy)benzyl)guanidine 2,2,2-trifluoroacetate]	10 to 32 µg/mL	1 to 10 µg/mL	–	–
N=C(N)NCc1cccc(OCc2ccc(C(F)(F)F)cc2)c1.O=C(O)C(F)(F)F [Compound 4h, 1-[(3-{[4-(trifluoromethyl)phenyl]methoxy}phenyl)methyl]guanidine 2,2,2-trifluoroacetate]	–	–	–	MIC [1]: 1 to 10 µg/mL; MIC [2]: 1 to 10 µg/mL
N=C(N)NOCc1cccc(Oc2ccccc2)c1.O=C(O)C(F)(F)F [Compound 41b, 1-[(3-phenoxyphenyl)methoxy]guanidine 2,2,2-trifluoroacetate]	> 100 µg/mL	> 100 µg/mL	–	–
N=C(N)NCc1ccc(NC(=O)c2ccccc2)cc1.O=C(O)C(F)(F)F [Compound 57b, Amino((4-benzamidobenzyl)amino)methaniminium 2,2,2-trifluoroacetate]	–	–	–	MIC [1]: 32 to 100 µg/mL; MIC [2]: 32 to 100 µg/mL
Cl.N=C(N)N/N=C/c1cccn1Cc1ccc(C(F)(F)F)cc1 [Compound 61h, (E)-Amino(2-((1-(4-(trifluoromethyl)benzyl)-1H-pyrrol-2-yl)methylene) hydrazinyl)methaniminium chloride]	10 to 32 µg/mL	10 to 32 µg/mL	–	–
Cl.N=C(N)N1CCc2c(cccc2OCc2cccc(Cl)c2Cl)C1 [Compound 38, 5-[(2,3-dichlorophenyl)methoxy]-1,2,3,4-tetrahydroisoquinoline-2-carboximidamide hydrochloride]	10 to 32 µg/mL	10 to 32 µg/mL	–	–
N=C(N)Nc1ccc(OCc2ccccc2)cc1.O=C(O)C(F)(F)F [Compound 23a, 1-[4-(benzyloxy)phenyl]guanidine 2,2,2-trifluoroacetate]	> 100 µg/mL	1 to 10 µg/mL	–	–
CNC(=N)NCc1cccc(OCc2cccc(Cl)c2Cl)c1.O=C(O)C(F)(F)F [Compound 15, 3-({3-[(2,3-dichlorophenyl)methoxy]phenyl}methyl)-1-methylguanidine 2,2,2-trifluoroacetate]	10 to 32 µg/mL	10 to 32 µg/mL	–	–
N=C(N)Nc1ccc(CNC(=O)c2ccccc2)cc1.O=C(O)C(F)(F)F [Compound 59a, Amino((4-(benzamidomethyl)phenyl)amino)methaniminium 2,2,2-trifluoroacetate]	–	–	–	MIC [1]: 32 to 100 µg/mL; MIC [2]: 32 to 100 µg/mL
